Measurements as given in patent publication US20110301142A1, “ANTAGONISTS OF LYSOPHOSPHATIDIC ACID RECEPTORS” (priority 2008, published 2011).
pIC50: −log10 of the molar value.

Legend:
human LPA1 = target: T1, human LPA1 (Homo sapiens, UniProt Q92633); assay: LPA1 calcium flux assay (HLPA1 Ca Flux); format: cell-based; settings: Human LPA1 expressing CHO cells, stimulated with 10 nM LPA
T1 construct: the full-length cDNA for human LPA1 was obtained by PCR of the reverse transcription reaction; expressed in transfected cells
T1 sequence (Q92633 whole entry): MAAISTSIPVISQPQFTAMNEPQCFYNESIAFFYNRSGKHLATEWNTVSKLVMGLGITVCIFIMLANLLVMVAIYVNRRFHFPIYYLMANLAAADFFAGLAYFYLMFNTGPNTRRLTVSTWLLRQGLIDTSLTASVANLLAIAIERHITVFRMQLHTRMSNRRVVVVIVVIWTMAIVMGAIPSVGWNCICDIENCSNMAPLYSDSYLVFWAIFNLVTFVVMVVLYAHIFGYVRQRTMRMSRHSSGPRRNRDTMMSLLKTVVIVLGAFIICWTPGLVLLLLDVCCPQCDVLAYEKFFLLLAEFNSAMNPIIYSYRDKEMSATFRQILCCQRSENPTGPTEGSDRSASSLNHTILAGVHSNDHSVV
In short: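 CHO cells stably expressing cloned human LPA1, serum-starved overnight and loaded with Calcium 4 dye, were preincubated 30 min at room temperature with compound. Cells were then challenged with 10 nM LPA and intracellular Ca2+ measured; IC50 values came from titration curves.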

human LPA3 = target: T2, human LPA3 (Homo sapiens, UniProt Q9UBY5); assay: LPA3 calcium flux assay; format: cell-based; settings: Human LPA3 expressing CHO cells, stimulated with 10 nM LPA; read-out: HLPA3 Ca Flux IC50
T2 construct: The full-length cDNA fragment for human LPA3 was obtained by PCR from the vector; expressed in transfected cells; cDNA from the Missouri S&T cDNA Resource Center
T2 sequence (Q9UBY5 1-353): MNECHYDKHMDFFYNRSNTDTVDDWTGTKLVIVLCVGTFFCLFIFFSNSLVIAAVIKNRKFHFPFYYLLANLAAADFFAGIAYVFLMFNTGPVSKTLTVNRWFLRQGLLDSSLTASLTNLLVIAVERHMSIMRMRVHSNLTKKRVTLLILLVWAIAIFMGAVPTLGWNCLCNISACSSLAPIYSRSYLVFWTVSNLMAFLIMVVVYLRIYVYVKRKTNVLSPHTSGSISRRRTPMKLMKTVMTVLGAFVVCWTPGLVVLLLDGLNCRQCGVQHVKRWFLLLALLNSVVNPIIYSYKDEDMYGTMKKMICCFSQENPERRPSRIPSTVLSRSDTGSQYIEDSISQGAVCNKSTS
Description: A vector containing the human LPA3 receptor cDNA was obtained from the Missouri S&T cDNA Resource Center (www.cdna.org). The full-length cDNA fragment for human LPA3 was obtained by PCR from the vector. The nucleotide sequence of the cloned human LPA3 was determined by sequencing and confirmed to be identical to the published human LPA3 sequence (NCBI accession number NM 012152). The cDNA was cloned into the pcDNA5/FRT expression plasmid and transfected in CHO cells using lipofectamine 2000 (Invitrogen Corp., USA). Clones stably expressing human LPA3 were selected using hygromycin and identified as cells that show Ca-influx in response to LPA.
Human LPA1 or LPA3 expressing CHO cells are seeded at 20,000-45,000 cells per well in a 96-well poly-D-lysine coated plate one or two days before the assay. Prior to the assay, the cells are washed once with PBS and then cultured in serum-free media overnight. On the day of the assay, a calcium indicator dye (Calcium 4, Molecular Devices) in assay buffer (HBSS with Ca^2+ and Mg^2+ and containing 20 mM Hepes and 0.3% fatty-acid free human serum albumin) is added to each well and incubation continued for 1 hour at 37° C. 10 μl of test compounds in 2.5% DMSO are added to the cells and incubation continued at room temperature for 30 minutes. Cells are the stimulated by the addition of 10 nM LPA and intracellular Ca^2+ measured using the Flexstation 3 (Molecular Devices). IC50s are determined using Graphpad prism analysis of drug titration curves.

Row | SMILES | pIC50 (human LPA1) | pIC50 (human LPA3)
1 | Cc1noc(-c2ccc(-c3ccc(C(C)C(=O)O)cc3)cc2)c1NC(=O)O[C@H](C)c1ccccc1F (stereo partly drawn) [Compound 1-91, 2-(4′-{4-[(R)-1-(2-Fluoro-phenyl)-ethoxycarbonylamino]-3-methyl-isoxazol-5-yl}-biphenyl-4-yl)-propionic acid] | > 6.52 | 4.30 to 6.00
2 | Cc1noc(-c2ccc(-c3ccc(CC(=O)O)cc3)nc2)c1NC(=O)OC(C)c1ccccc1F (stereo not shown) [Compound 1-48] | > 6.52 | < 4.30
3 | Cc1noc(-c2ccc(-c3ccc(Cc4nn[nH]n4)cc3)cc2)c1NC(=O)O[C@H](C)c1ccccc1F [Compound 2-4, {3-Methyl-5-[4′-(2H-tetrazol-5-ylmethyl)-biphenyl-4-yl]-isoxazol-4-yl}-carbamic acid (R)-1-(2-fluoro-phenyl)-ethyl ester] | > 6.52 | 4.30 to 6.00
4 | COC(=O)Cc1ccc(OCc2ccc(-c3onc(C)c3NC(=O)O[C@H](C)c3ccccc3Cl)cc2)cc1 [Compound 1-102, [4-(4-{4-[(R)-1-(2-Chloro-phenyl)-ethoxycarbonylamino]-3-methyl-isoxazol-5-yl}-benzyloxy)-phenyl]-acetic acid methyl ester] | > 6.52 | 4.30 to 6.00
5 | Cc1noc(-c2ccc(-c3ccc(CC(=O)O)cc3)cc2)c1NC(=O)OC(C)c1cccc(Br)c1 (stereo not shown) [Compound 1-27, (4′-{4-[1-(3-Bromo-phenyl)-ethoxycarbonylamino]-3-methyl-isoxazol-5-yl}-biphenyl-4-yl)-acetic acid] | > 6.52 | 4.30 to 6.00
6 | Cc1noc(-c2ccc(Oc3cccc(CC(=O)O)c3)cc2)c1NC(=O)O[C@H](C)c1ccccc1Cl [Compound 1-137, [3-(4-{4-[(R)-1-(2-Chloro-phenyl)-ethoxycarbonylamino]-3-methyl-isoxazol-5-yl}-phenoxy)-phenyl]acetic acid] | > 6.52 | 4.30 to 6.00
7 | Cc1noc(-c2ccc(-c3cc(CC(=O)O)ccc3F)cc2)c1NC(=O)OC(C)c1ccccc1Cl (stereo not shown) [Compound 1-64, (4′-{4-[1-(2-Chloro-phenyl)-ethoxycarbonylamino]-3-methyl-isoxazol-5-yl}-6-fluoro-biphenyl-3-yl)-acetic acid] | > 6.52 | 4.30 to 6.00
8 | Cc1noc(-c2ccc(-c3ccc(C(C)(C)C(=O)O)cc3)cc2)c1NC(=O)O[C@H](C)c1ccccc1Cl [Compound 1-89, 2-(4′-{4-[(R)-1-(2-Chloro-phenyl)-ethoxycarbonylamino]-3-methyl-isoxazol-5-yl}-biphenyl-4-yl)-2-methyl-propionic acid] | > 6.52 | 6.00 to 6.52
9 | Cc1noc(-c2ccc(-c3cccc(C(=O)O)n3)cc2)c1NC(=O)OC(C)c1ccccc1Cl (stereo not shown) [Compound 1-53, 6-(4-{4-[1-(2-Chloro-phenyl)-ethoxycarbonylamino]-3-methyl-isoxazol-5-yl}-phenyl)-pyridine-2-carboxylic acid] | > 6.52 | 4.30 to 6.00
10 | CCC(C(=O)O)c1ccc(-c2ccc(-c3onc(C)c3NC(=O)O[C@H](C)c3ccccc3Cl)cc2)cc1 (stereo partly drawn) [Compound 1-130, 2-(4′-{4-[(R)-1-(2-Chloro-phenyl)-ethoxycarbonylamino]-3-methyl-isoxazol-5-yl}-biphenyl-4-yl)-butyric acid] | > 6.52 | 6.00 to 6.52
11 | Cc1noc(-c2ccc(-c3ccc(C(O)C(=O)O)cc3)cc2)c1NC(=O)O[C@H](C)c1ccccc1F (stereo partly drawn) [Compound 1-139, (4′-{4-[(R)-1-(2-Fluoro-phenyl)-ethoxycarbonylamino]-3-methyl-isoxazol-5-yl}-biphenyl-4-yl)-hydroxy-acetic acid] | > 6.52 | 4.30 to 6.00
12 | Cc1noc(-c2ccc(-c3ccc(CC(=O)O)cc3)cc2)c1NC(=O)O[C@@H](C)c1ccccc1F [Compound 1-111, (4′-{4-[(S)-1-(2-Fluoro-phenyl)-ethoxycarbonylamino]-3-methyl-isoxazol-5-yl}-biphenyl-4-yl)-acetic acid] | > 6.52 | 4.30 to 6.00
13 | Cc1ccccc1[C@@H](C)OC(=O)Nc1c(C)noc1-c1ccc(-c2ccc(CC(=O)O)cc2)cc1 [Compound 1-124] | > 6.52 | 4.30 to 6.00
14 | Cc1noc(-c2ccc(-c3ccc(C(C)(C)C(=O)O)cc3)cc2)c1NC(=O)OC(C)c1ccccc1F (stereo not shown) [Compound 1-86, 2-(4′-{4-[1-(2-Fluoro-phenyl)-ethoxycarbonylamino]-3-methyl-isoxazol-5-yl}-biphenyl-4-yl)-2-methyl-propionic acid] | > 6.52 | 4.30 to 6.00
15 | Cc1noc(-c2ccc(-c3ccc(C(C)C(=O)O)cc3)cc2)c1NC(=O)OC(C)c1ccccc1Cl (stereo not shown) [Compound 1-71, 2-(4′-{4-[1-(2-Chloro-phenyl)-ethoxycarbonylamino]-3-methyl-isoxazol-5-yl}-biphenyl-4-yl)-propionic acid] | > 6.52 | 4.30 to 6.00
16 | Cc1noc(-c2ccc(-c3cccc(CC(=O)O)c3)cc2)c1NC(=O)O[C@H](C)c1ccccc1 [Compound 1-121] | > 6.52 | < 4.30
17 | Cc1noc(-c2ccc(-c3ccc(CC(=O)O)cc3)c(Cl)c2)c1NC(=O)O[C@H](C)c1ccccc1Cl [Compound 1-131, (2′-Chloro-4′-{4-[(R)-1-(2-chloro-phenyl)-ethoxycarbonylamino]-3-methyl-isoxazol-5-yl}-biphenyl-4-yl)-acetic acid] | > 6.52 | 4.30 to 6.00
18 | Cc1noc(-c2ccc(-c3ccc(CC(=O)O)cc3)cc2)c1NC(=O)O[C@H](C)c1cccc(O)c1 [Compound 1-144, (4′-{4-[(R)-1-(3-Hydroxy-phenyl)-ethoxycarbonylamino]-3-methyl-isoxazol-5-yl}-biphenyl-4-yl)-acetic acid] | 4.30 to 6.00 | < 4.30
19 | Cc1noc(-c2cnc(-c3ccc(CC(=O)O)cc3)s2)c1NC(=O)O[C@H](C)c1ccccc1F [Compound 3-4, [4-(5-{4-[(R)-1-(2-Fluoro-phenyl)-ethoxycarbonylamino]-3-methyl-isoxazol-5-yl}-thiazol-2-yl)-phenyl]-acetic acid] | > 6.52 | < 4.30
20 | Cc1noc(-c2ccc(C3CCC(C(=O)O)CC3)cc2)c1NC(=O)OC(C)c1ccccc1Cl (stereo not shown) [Compound 1-67, 4-(4-{4-[1-(2-Chloro-phenyl)-ethoxycarbonylamino]-3-methyl-isoxazol-5-yl}-phenyl)-cyclohexanecarboxylic acid] | > 6.52 | 4.30 to 6.00
21 | Cc1noc(-c2ccc(-c3cc(C(=O)O)ccn3)cc2)c1NC(=O)OC(C)c1ccccc1Cl (stereo not shown) [Compound 1-50, 2-(4-{4-[1-(2-Chloro-phenyl)-ethoxycarbonylamino]-3-methyl-isoxazol-5-yl}-phenyl)-isonicotinic acid] | > 6.52 | 4.30 to 6.00
22 | Cc1noc(-c2ccc(COc3cccc(C(=O)O)c3)cc2)c1NC(=O)OC(C)c1ccccc1Cl (stereo not shown) [Compound 1-12, 3-(4-{4-[1-(2-Chloro-phenyl)-ethoxycarbonylamino]-3-methyl-isoxazol-5-yl}-benzyloxy)-benzoic acid] | > 6.52 | 4.30 to 6.00
23 | Cc1noc(-c2ccc(-c3ccc(CC(=O)O)cc3)cc2)c1NC(=O)OC(C)c1cccc(C(F)(F)F)c1 (stereo not shown) [Compound 1-24, (4′-{3-Methyl-4-[1-(3-trifluoromethyl-phenyl)-ethoxycarbonylamino]-isoxazol-5-yl}-biphenyl-4-yl)-acetic acid] | 6.00 to 6.52 | 4.30 to 6.00
24 | Cc1noc(-c2ccc(-c3ccc(F)c(CC(=O)O)c3)cc2)c1NC(=O)OC(C)c1ccccc1Cl (stereo not shown) [Compound 1-65, (4′-{4-[1-(2-Chloro-phenyl)-ethoxycarbonylamino]-3-methyl-isoxazol-5-yl}-4-fluoro-biphenyl-3-yl)-acetic acid] | > 6.52 | 4.30 to 6.00
25 | Cc1noc(-c2ccc(CSc3ccc(CC(=O)O)cc3)cc2)c1NC(=O)OC(C)c1ccccc1Cl (stereo not shown) [Compound 1-17, [4-(4-{4-[1-(2-Chloro-phenyl)-ethoxycarbonylamino]-3-methyl-isoxazol-5-yl}-benzylsulfanyl)-phenyl]-acetic acid] | > 6.52 | 4.30 to 6.00
26 | Cc1noc(-c2ccc(Cn3cnc(C(=O)O)n3)cc2)c1NC(=O)OC(C)c1ccccc1Cl (stereo not shown) [Compound 1-1, 1-(4-{4-[1-(2-Chloro-phenyl)-ethoxycarbonylamino]-3-methyl-isoxazol-5-yl}-benzyl)-1H-[1,2,4]triazole-3-carboxylic acid] | > 6.52 | 4.30 to 6.00
